Laboratory results taken from US7323490B2, “Pyrrole compounds and uses thereof” (Ambit Biosciences Corporation, priority 2003, dated 2008).
“And” between values parts separate entries of the source, which are not always exact repeats. Equal values may be shown once. Read-outs that look alike come from different tables or passages of the source.

Columns and labels:
[1] = test system: focal cerebral infarcts (MCAo); assay: Infarct volume measurement (H&E), Tamura MCAo model; type: in vivo, rat; details: day 7
Description: Behavioral assessment as well as infarct volume of compound-treated animals in comparison to control (vehicle) volume animals was used for evaluating compound efficacy over a 7 day period.
Surgical Preparation. Middle Cerebral Artery Occlusion (MCAo), Tamura Model. Focal cerebral infarcts were made by permanent occlusion of the proximal right middle cerebral artery using a modification of the method of Tamura et al. Male Sprague-Dawley rats (300-350 g) were anesthetized with 2% isoflourane in 50% Air/50% O2, and maintained with 1-1.5% isoflourane. The temporalis muscle was bisected and reflected through an incision made midway between the eye and the eardrum canal. The proximal MCA was exposed through a subtemporal craniectomy without removing the zygomatic arch and without transecting the facial nerve. […] Body temperature was maintained at 38° C.±1 throughout the entire procedure. Animals were euthanatized at various time periods after MCA occlusion and the brains are removed for histological analysis.
Morphometric Analysis—Brain Perfusion. Seven days after the induction of focal ischemia, rats were deeply anesthetized with a ketamine, and xylazine cocktail. The animals were then perfused transcardially with normal saline (with heparin 2 unit/ml) followed by 4% paraformaldehyde for infarct volume measurement (H&E staining). Brains were removed and stored in 10% formalin to be sectioned and stained with Hematoxylin and Eosin.
Infarct Volume Measurement. Using the Image Pro-Plus imaging system, a total of 7 images per brain of the posterior side of each slice were analyzed through digital analysis. The total direct infarct volume was calculated for the left hemisphere using the equation below. Digitizing and computation was done under blinded conditions.
The total infarct volumes are calculated for each animal and subsequent group means were determined as volume of area (mm^3). To account for tissue shrinkage and possible edema the indirect method of infarct volume was calculated using the formula: Total Contralateral Hemisphere Volume−Total Infarcted Hemisphere Volume (mm^3)
Experimental Groups and Compound Administration. A total of 80 animals underwent MCAo using subcutaneous administration of all test articles, according to the experimental design illustrated in Table 16. […] The time schedules for administration of all treated groups (10 animals/group) was divided as follows:
All animals were treated with the compound(s)/vehicle(s) as a blinded random investigation. The dose and route of administration is given below in Table 16. Forty animals used in the first group of the study (group a.) Cerebral blood flow measurement was performed according to the protocol previously discussed on days 0, 1 and 5 with respect to MCAo.

[2] = test system: focal cerebral ischemia; details: for Infarct Volume: 1 h post, 24 h post MCAo, mean ± SEM; for Infarct Volume / infarct volume compared with controls (significance) / reduction in infarct volume from control: 48 h
Protocol: Control animals were injected with the vehicle for the test compounds. Survival was maintained for 48 hrs. The cortical infarction sizes were used as endpoints for efficacy evaluation.
Animal Preparation and Middle Cerebral Artery Occlusion. Male, adult, Sprague-Dawley rats (Charles River), weighing 300-400 grams, were used for the study. All animals were acclimated at least for five days before entering the study. Animals were housed in a standard animal facility and fed with commercial rodent chow ad libitum. All animals were anesthetized via intramuscular injection (4 mL/kg) of “cocktail” containing ketamine (25 mg/mL), xylazine (1.3 mg/mL) and acepromazine (0.33 mg/mL). Both carotid arteries were separated with great caution to minimize the vagal nerve stimulation. The right proximal MCA trunk was exposed through a subtemporal craniectomy without transecting the facial nerve. […] Immediately following MCA occlusion, both of the common carotid arteries were occluded for 1 hour using surgical aneurysm micro-clips (ROBOZ INC). Animals were put into temperature regulated recovery chamber for 1 hour before the clips were removed from the common carotid arteries. Body temperature was maintained at 37±0.5° C. during the surgery using a heating blanket connected to a temperature controller.
Compound Administration and Storage. In a blinded random investigation, all animals were injected with the compound(s) or vehicle via S.C. as bolus injection at 2 hours pre, 1 hour post and 24 hours post-MCAo.
Infarct Measurement. Forty-eight hours following MCAo, animals were euthanized with inhalation of CO2. Brains were removed and chilled in ice saline for 10 min. The brains were put in a metal rodent brain slicer. Each rat brain was cut coronally into 7 sections, with each section being 2 mm thick. The brain sections were immersed in 2% TTC solution for 30 min at 37° C. The areas of cerebral infarcts were determined on seven slices, using a computer-interfaced imaging system, Image-Pro® Plus, Version 4.4 for Windows (Media Cybernetics, MD). Infarct areas were then summed among slices and multiplied by slice thickness to give the total infarct volume.
Statistics. All data are expressed as mean±SEM. Infarct volume was analyzed using Student t Test. A p value of ≦0.05 was considered a statistically significant difference. All statistical analyses were performed with the software package JMP version 4.0 (SAS Institute Inc., Cary, N.C.).

[3] = test system: focal cerebral infarcts (MCAo); assay: Forelimb placing test, Tamura MCAo model; type: in vivo, rat; details: AVG, 0=normal, 10=maximally impaired
Description: (§1) Surgical Preparation. Middle Cerebral Artery Occlusion (MCAo), Tamura Model. Focal cerebral infarcts were made by permanent occlusion of the proximal right middle cerebral artery using a modification of the method of Tamura et al. […] The temporalis muscle was bisected and reflected through an incision made midway between the eye and the eardrum canal. The proximal MCA was exposed through a subtemporal craniectomy without removing the zygomatic arch and without transecting the facial nerve. […] Animals were euthanatized at various time periods after MCA occlusion and the brains are removed for histological analysis. Behavioral Analysis. Two behavioral tests were performed, the limb placing and body swing test. […] Limb Placing. The limb placing tests were divided into both forelimb and hindlimb tests. For the forelimb-placing test, the examiner held the rat close to a tabletop and scored the rat's ability to place the forelimb on the tabletop in response to whisker, visual, tactile, or proprioceptive stimulation. Similarly, for the hindlimb placing test, the examiner assessed the rat's ability to place the hindlimb on the tabletop in response to tactile and proprioceptive stimulation. […] Typically, there was a slow and steady recovery of limb placing behavior during the first month after stroke. Experimental Groups and Compound Administration. A total of 80 animals underwent MCAo using subcutaneous administration of all test articles, according to the experimental design illustrated in Table 16. […] All animals were treated with the compound(s)/vehicle(s) as a blinded random investigation. The dose and route of administration is given below in Table 16.

[4] = test system: focal cerebral infarcts (MCAo); assay: Hindlimb placing test, Tamura MCAo model; type: in vivo, rat; details: AVG, 0=normal, 6=maximally impaired
Description: as §1

[5] = administered six hours after MCAo
[6] = administered six hours after MCAo, listed as C
[7] = administered three hours after MCAo
[8] = administered three hours after MCAo, listed as C
[9] = administered six hours after MCAo, listed as A
[10] = administered three hours after MCAo, listed as A
[11] = administered six hours after MCAo, listed as B
[12] = administered three hours after MCAo, listed as B

| Compound | Corrected Infarct Volume, Average [1, 5] | Percent Infarct Volume, Average [1, 5] | Corrected Infarct Volume, Average [1, 7] | Percent Infarct Volume, Average [1, 7] | Forelimb placing test score, D0 [3, 5] | Forelimb placing test score, D1 [3, 5] | Forelimb placing test score, D3 [3, 5] | Forelimb placing test score, D7 [3, 5] | Forelimb placing test score, D0 [3, 7] | Forelimb placing test score, D1 [3, 7] | Forelimb placing test score, D3 [3, 7] | Forelimb placing test score, D7 [3, 7] | Hindlimb placing test score, D0 [4, 5] | Hindlimb placing test score, D1 [4, 5] | Hindlimb placing test score, D3 [4, 5] | Hindlimb placing test score, D7 [4, 5] | Hindlimb placing test score, D0 [4, 7] | Hindlimb placing test score, D1 [4, 7] | Hindlimb placing test score, D3 [4, 7] | Hindlimb placing test score, D7 [4, 7] | further results |
| --- | --- | --- | --- | --- | --- | --- | --- | --- | --- | --- | --- | --- | --- | --- | --- | --- | --- | --- | --- | --- | --- |
| CC(C)c1c(C(=O)Nc2ccccc2)c(-c2ccccc2)c(-c2ccc(F)cc2)n1CC[C@@H](O)C[C@@H](O)CC(=O)O [atorvastatin, reference compound] | 271.2 mm^3 | 24.56% | 207.96 mm^3 | 21% | 0 | 8.8 | 8.8 | 8 | 0 | 9.2 | 7.3 | 5.6 | 0 | 5.9 | 4.9 | 3.5 | 0 | 5.6 | 4.3 | 2.8 | Corrected Infarct Volume, individual animals [1, 6]: 138.8 mm^3 and 267.1 mm^3 and 232.3 mm^3 and 333 mm^3 and 214.3 mm^3 and 291.6 mm^3 and 338.3 mm^3 and 354.3 mm^3; Percent Infarct Volume, individual animals [1, 6]: 12.7% and 21.6% and 24.2% and 31% and 25.4% and 29.4% and 25.7% and 26.6%; Corrected Infarct Volume, individual animals [1, 8]: 208 mm^3 and 303.3 mm^3 and 262.3 mm^3 and 184.8 mm^3 and 243.8 mm^3 and 124 mm^3 and 162.8 mm^3 and 164.5 mm^3 and 218.2 mm^3; Percent Infarct Volume, individual animals [1, 8]: 18.35% and 28.2% and 31% and 16.2101% and 25.43% and 12.82% and 17.39% and 16.81% and 22.81%; Infarct Volume ([2]; 1 mg/kg SC at 2 h pre): 158.06 ± 32.83 mm^3; infarct volume compared with controls (significance) ([2]; 1 mg/kg SC): not significantly different from controls; Infarct Volume ([2]; 10 mg/kg SC at 2 h pre): 124.71 ± 17.31 mm^3; infarct volume compared with controls (significance) ([2]; 10 mg/kg SC): not significantly different from controls |
| CC(C)c1c(C(=O)Nc2ccccc2)c(-c2ccccc2)c(-c2ccc(F)cc2)n1CC(O)C(O)C(O)C(O)CO (stereo not drawn) [Compound 782236] | 239.27 mm^3 | 26.69% | 212.59 mm^3 | 23.53% | 0 | 9.2 | 8.9 | 7 | 0 | 8.4 | 6.7 | 5.9 | 0 | 4.7 | 4 | 3.3 | 0 | 4.6 | 4 | 3.2 | Corrected Infarct Volume, individual animals [1, 9]: 227.2 mm^3 and 166.6 mm^3 and 234.6 mm^3 and 269.8 mm^3 and 249 mm^3 and 215.8 mm^3 and 229 mm^3 and 213.3 mm^3 and 271.4 mm^3 and 316 mm^3; Percent Infarct Volume, individual animals [1, 9]: 25.6% and 31.5% and 24.6% and 28.8% and 28.1% and 28.9% and 24.8% and 23.5% and 25.3% and 25.8%; Corrected Infarct Volume, individual animals [1, 10]: 210.9 mm^3 and 272.5 mm^3 and 275.6 mm^3 and 163.8 mm^3 and 249 mm^3 and 229.2 mm^3 and 127.9 mm^3 and 222.3 mm^3 and 235 mm^3 and 139.8 mm^3; Percent Infarct Volume, individual animals [1, 10]: 25.1% and 29% and 23.7% and 15.8% and 28.1% and 25.9% and 15.9% and 27.5% and 25.4% and 18.9%; Infarct Volume ([2]; 1 mg/kg SC at 2 h pre, listed as A): 71.32±36.98 mm^3; reduction in infarct volume from control ([2]; 1 mg/kg SC): 53%; animals died within the 24-hour period after the second injection ([2]; 10 mg/kg SC): Three; mortality rate ([2]; 10 mg/kg SC): 60% |
| CC(C)c1[nH]c(-c2ccc(F)cc2)c(-c2ccccc2)c1C(=O)Nc1ccccc1 [Compound 781430] | 283.4 mm^3 | 26.92% | 213.77 mm^3 | 22.29% | 0 | 8.9 | 8.5 | 6 | 0 | 8.9 | 7.6 | 4.3 | 0 | 5.3 | 3.5 | 3 | 0 | 4.1 | 2.8 | 2.1 | Corrected Infarct Volume, individual animals [1, 11]: 375.7 mm^3 and 204.5 mm^3 and 353.2 mm^3 and 262.2 mm^3 and 196.6 mm^3 and 352.4 mm^3 and 289.9 mm^3 and 195.4 mm^3 and 327.7 mm^3 and 276.5 mm^3; Percent Infarct Volume, individual animals [1, 11]: 31.4% and 21.7% and 26.2% and 33.9% and 15.6% and 29.1% and 28.8% and 25.4% and 35.3% and 21.8%; Corrected Infarct Volume, individual animals [1, 12]: 200.1 mm^3 and 231.7 mm^3 and 217.7 mm^3 and 173 mm^3 and 180.5 mm^3 and 224.1 mm^3 and 208.1 mm^3 and 233.4 mm^3 and 255.3 mm^3; Percent Infarct Volume, individual animals [1, 12]: 19.74% and 21.5679% and 24.3% and 20.62% and 19.71% and 23.99% and 22.56% and 24.24% and 23.9%; Infarct Volume ([2]; 1 mg/kg SC at 2 h pre): 152.83 ± 13.78 mm^3; infarct volume compared with controls (significance) ([2]; 1 mg/kg SC): not significantly different from controls; Infarct Volume ([2]; 10 mg/kg SC at 2 h pre, listed as B): 65.99±25.01 mm^3; reduction in infarct volume from control ([2]; 10 mg/kg SC): 57% |
